# Source: patent US8802597B2, “Herbicidal pyrimidines” (E I du Pont de Nemours and Company, priority 2003, dated 2014)
# Where two headings read alike, the source gives them in different places.
# Key:
# Assay in all cases: Test C pre/postemergence
# Type in all cases: in vivo
# [1] = tested on: goosegrass (Eleusine indica); conditions: Eleusine indica; for pest or weed control at 16 g/ha: 16 g ai/ha; for pest or weed control at 31 g/ha: 31 g ai/ha; for pest or weed control at 62 g/ha: 62 g ai/ha
# How it was run: (§1)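 We sprayed seeded pots preemergence and 2–18 cm seedlings postemergence with test chemicals in a non-phytotoxic solvent mixture including surfactant. Greenhouse plants were visually compared with untreated controls at 12 to 14 days and scored 0 (no effect) to 100 (complete control).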
# soybean (Glycine max) = conditions: Glycine max; for plant injury at 8 g/ha: 8 g ai/ha; for plant injury at 16 g/ha: 16 g ai/ha; for plant injury at 31 g/ha: 31 g ai/ha; for plant injury at 62 g/ha: 62 g ai/ha
# How it was run: as §1
# [2] = tested on: woolly cupgrass (Eriochloa villosa); conditions: Eriochloa villosa; for pest or weed control at 8 g/ha: 8 g ai/ha; for pest or weed control at 16 g/ha: 16 g ai/ha; for pest or weed control at 31 g/ha: 31 g ai/ha; for pest or weed control at 62 g/ha: 62 g ai/ha
# How it was run: as §1
# [3] = tested on: Surinam grass (Brachiaria decumbens); conditions: Urochloa decumbens; for pest or weed control at 8 g/ha: 8 g ai/ha; for pest or weed control at 16 g/ha: 16 g ai/ha; for pest or weed control at 31 g/ha: 31 g ai/ha; for pest or weed control at 62 g/ha: 62 g ai/ha
# How it was run: as §1
# [4] = tested on: giant foxtail (Setaria faberii); conditions: Setaria faberi; for pest or weed control at 8 g/ha: 8 g ai/ha; for pest or weed control at 31 g/ha: 31 g ai/ha; for pest or weed control at 62 g/ha: 62 g ai/ha
# How it was run: as §1
# [5] = tested on: morningglory (Ipomoea coccinea); conditions: Ipomoea; for pest or weed control at 8 g/ha: 8 g ai/ha; for pest or weed control at 31 g/ha: 31 g ai/ha; for pest or weed control at 62 g/ha: 62 g ai/ha
# How it was run: as §1
# [6] = post-emergence, Postemergence, read-out: Plant response rating (scale of 0 to 100), Goosegrass
# [7] = pre-emergence, Preemergence, scale 0 to 100, 0 no effect, 100 complete control, read-out: Plant response rating, Goosegrass
# [8] = post-emergence, Postemergence, read-out: Plant response rating (scale of 0 to 100), Soybean
# [9] = pre-emergence, Preemergence, scale 0 to 100, 0 no effect, 100 complete control, read-out: Plant response rating, Soybean
# [10] = post-emergence, Postemergence, read-out: Plant response rating (scale of 0 to 100), Cupgrass, Woolly
# [11] = pre-emergence, Preemergence, scale 0 to 100, 0 no effect, 100 complete control, read-out: Plant response rating, Cupgrass, Woolly
# [12] = post-emergence, Postemergence, read-out: Plant response rating (scale of 0 to 100), Surinam Grass
# [13] = pre-emergence, Preemergence, scale 0 to 100, 0 no effect, 100 complete control, read-out: Plant response rating, Surinam Grass
# [14] = post-emergence, Postemergence, read-out: Plant response rating (scale of 0 to 100), Foxtail, Giant
# [15] = pre-emergence, Preemergence, scale 0 to 100, 0 no effect, 100 complete control, read-out: Plant response rating, Foxtail, Giant
# [16] = post-emergence, Postemergence, read-out: Plant response rating (scale of 0 to 100), Morningglory
# [17] = pre-emergence, Preemergence, scale 0 to 100, 0 no effect, 100 complete control, read-out: Plant response rating, Morningglory
structure (smiles),measurement,setting,value
"Nc1nc(-c2ccc(Br)cc2)nc(C(=O)O)c1Cl [Compound 95, 6-amino-2-(4-bromophenyl)-5-chloro-4-pyrimidinecarboxylic acid]",pest or weed control at 16 g/ha,[1]; [6],65%
same,pest or weed control at 31 g/ha,[1]; [6],75%
same,pest or weed control at 62 g/ha,[1]; [6],80%
same,pest or weed control at 8 g/ha,"[1]; pre-emergence, Preemergence, 8 g ai/ha, scale 0 to 100 (0 no effect, 100 complete control), read-out: Plant response rating, Goosegrass",0%
same,pest or weed control at 16 g/ha,[1]; [7],0%
same,pest or weed control at 31 g/ha,[1]; [7],10%
same,pest or weed control at 62 g/ha,[1]; [7],40%
same,plant injury at 8 g/ha,"soybean (Glycine max); post-emergence, Postemergence, scale 0 to 100, read-out: Plant response rating, Soybean",100%
same,plant injury at 16 g/ha,soybean (Glycine max); [8],100%
same,plant injury at 31 g/ha,soybean (Glycine max); [8],100%
same,plant injury at 62 g/ha,soybean (Glycine max); [8],100%
same,plant injury at 8 g/ha,"soybean (Glycine max); pre-emergence, Preemergence, scale 0 to 100 (0 no effect, 100 complete control), read-out: Plant response rating, Soybean",90%
same,plant injury at 16 g/ha,soybean (Glycine max); [9],90%
same,plant injury at 31 g/ha,soybean (Glycine max); [9],100%
same,plant injury at 62 g/ha,soybean (Glycine max); [9],100%
same,pest or weed control at 8 g/ha,"[2]; post-emergence, Postemergence, scale 0 to 100, read-out: Plant response rating, Cupgrass, Woolly",75%
same,pest or weed control at 16 g/ha,[2]; [10],75%
same,pest or weed control at 31 g/ha,[2]; [10],75%
same,pest or weed control at 62 g/ha,[2]; [10],80%
same,pest or weed control at 8 g/ha,"[2]; pre-emergence, Preemergence, scale 0 to 100 (0 no effect, 100 complete control), read-out: Plant response rating, Cupgrass, Woolly",0%
same,pest or weed control at 16 g/ha,[2]; [11],0%
same,pest or weed control at 31 g/ha,[2]; [11],0%
same,pest or weed control at 62 g/ha,[2]; [11],5%
same,pest or weed control at 8 g/ha,"[3]; post-emergence, Postemergence, scale 0 to 100, read-out: Plant response rating, Surinam Grass",55%
same,pest or weed control at 16 g/ha,[3]; [12],65%
same,pest or weed control at 31 g/ha,[3]; [12],70%
same,pest or weed control at 62 g/ha,[3]; [12],75%
same,pest or weed control at 8 g/ha,"[3]; pre-emergence, Preemergence, scale 0 to 100 (0 no effect, 100 complete control), read-out: Plant response rating, Surinam Grass",0%
same,pest or weed control at 16 g/ha,[3]; [13],0%
same,pest or weed control at 31 g/ha,[3]; [13],5%
same,pest or weed control at 62 g/ha,[3]; [13],10%
same,pest or weed control at 8 g/ha,"[4]; post-emergence, Postemergence, scale 0 to 100, read-out: Plant response rating, Foxtail, Giant",70%
same,pest or weed control at 31 g/ha,[4]; [14],75%
same,pest or weed control at 62 g/ha,[4]; [14],80%
same,pest or weed control at 8 g/ha,"[4]; pre-emergence, Preemergence, scale 0 to 100 (0 no effect, 100 complete control), read-out: Plant response rating, Foxtail, Giant",0%
same,pest or weed control at 16 g/ha,"[4]; pre-emergence, Preemergence, 16 g ai/ha, scale 0 to 100, 0 no effect, 100 complete control, read-out: Plant response rating, Foxtail, Giant",0%
same,pest or weed control at 31 g/ha,[4]; [15],30%
same,pest or weed control at 62 g/ha,[4]; [15],35%
same,pest or weed control at 8 g/ha,"[5]; post-emergence, Postemergence, scale 0 to 100, read-out: Plant response rating, Morningglory",60%
same,pest or weed control at 31 g/ha,[5]; [16],80%
same,pest or weed control at 62 g/ha,[5]; [16],95%
same,pest or weed control at 8 g/ha,"[5]; pre-emergence, Preemergence, scale 0 to 100 (0 no effect, 100 complete control), read-out: Plant response rating, Morningglory",0%
same,pest or weed control at 16 g/ha,"[5]; pre-emergence, Preemergence, 16 g ai/ha, scale 0 to 100, 0 no effect, 100 complete control, read-out: Plant response rating, Morningglory",0%
same,pest or weed control at 31 g/ha,[5]; [17],10%
same,pest or weed control at 62 g/ha,[5]; [17],60%
